Reference: patent publication US9409866B2, “Pyridine-2-amides useful as CB2 agonists” (Hoffmann-La Roche Inc., priority 2012, dated 2016)

Assays:
human CB2 receptors = human CB2 receptors (Homo sapiens (Human), UniProt P34972); assay: functional cAMP assay, CHO cells expressing human CB2; assay type: cell-based; settings: read-out: Human CB2 EC50
Summary of the method: (§1)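 CHO cells expressing human CB1 or CB2 were preincubated 30 min at 30 °C in Krebs Ringer bicarbonate with 1 mM IBMX, then exposed to compound 30 min at 30 °C. cAMP quantified by TR-FRET competition (Alexa700 antibody/ruthenium-cAMP) against a 10 μM–0.13 nM standard curve; EC50 derived.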

human CB1 receptors = human CB1 receptors (Homo sapiens (Human), UniProt P21554); assay: functional cAMP assay, CHO cells expressing human CB1; assay type: cell-based; settings: functional cAMP assay, CHO cells expressing human CB1; read-out: Human CB1 EC50
Sequence of human CB1 receptors (P21554 whole entry): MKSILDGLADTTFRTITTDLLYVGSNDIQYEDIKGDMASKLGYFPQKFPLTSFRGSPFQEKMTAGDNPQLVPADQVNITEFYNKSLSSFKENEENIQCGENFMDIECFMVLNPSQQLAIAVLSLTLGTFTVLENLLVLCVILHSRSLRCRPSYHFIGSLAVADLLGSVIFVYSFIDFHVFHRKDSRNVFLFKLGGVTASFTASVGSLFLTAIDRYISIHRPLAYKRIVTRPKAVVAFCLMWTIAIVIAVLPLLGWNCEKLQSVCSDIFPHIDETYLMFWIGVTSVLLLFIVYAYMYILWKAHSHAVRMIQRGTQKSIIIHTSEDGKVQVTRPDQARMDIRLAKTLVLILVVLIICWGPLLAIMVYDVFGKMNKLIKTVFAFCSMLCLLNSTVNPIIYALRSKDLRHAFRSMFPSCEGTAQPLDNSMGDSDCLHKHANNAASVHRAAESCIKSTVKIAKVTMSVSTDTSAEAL
Summary of the method: as §1

Sequence of human CB2 receptors (P34972 whole entry): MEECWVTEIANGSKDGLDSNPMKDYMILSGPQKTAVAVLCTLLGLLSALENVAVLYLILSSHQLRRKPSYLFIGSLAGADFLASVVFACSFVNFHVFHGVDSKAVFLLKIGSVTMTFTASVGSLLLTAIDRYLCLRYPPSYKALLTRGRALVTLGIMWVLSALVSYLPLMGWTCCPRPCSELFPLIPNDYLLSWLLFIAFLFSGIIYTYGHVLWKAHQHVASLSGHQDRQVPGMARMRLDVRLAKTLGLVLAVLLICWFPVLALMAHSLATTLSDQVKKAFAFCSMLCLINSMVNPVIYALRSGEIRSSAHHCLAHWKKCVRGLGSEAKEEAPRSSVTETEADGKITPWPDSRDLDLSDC

Compound	EC50 (human CB2 receptors) [nM]	EC50 (human CB1 receptors) [nM]
Cc1nc(C(C)(CC2CC2)NC(=O)c2cc(OCC(F)(F)F)c(C3(O)COC3)cn2)no1 (stereo not shown) [Example 123, N-[1-cyclopropyl-2-(5-methyl-1,2,4-oxadiazol-3-yl)propan-2-yl]-5-(3-hydroxyoxetan-3-yl)-4-(2,2,2-trifluoroethoxy)pyridine-2-carboxamide]	998	> 10000
Cc1nc(C(C)(CS(C)(=O)=O)NC(=O)c2cc(O[C@@H](C)C(F)(F)F)c(C3(O)CCC3)cn2)no1 (stereo partly drawn) [Example 126, 5-(1-hydroxycyclobutyl)-N-[2-(5-methyl-1,2,4-oxadiazol-3-yl)-1-methylsulfonylpropan-2-yl]-4-[(2S)-1,1,1-trifluoropropan-2-yl]oxypyridine-2-carboxamide]	219	> 10000
Cc1nc(C(C)(CS(C)(=O)=O)NC(=O)c2cc(OCC(F)(F)F)c(C3=CCC3)cn2)no1 (stereo not shown) [Example 127, 5-(cyclobuten-1-yl)-N-[2-(5-methyl-1,2,4-oxadiazol-3-yl)-1-methylsulfonylpropan-2-yl]-4-(2,2,2-trifluoroethoxy)pyridine-2-carboxamide]	19.6	> 10000
Cc1nc(C(C)(CN2CC(F)(F)C2)NC(=O)c2cc(OCC(F)(F)F)c(C3CC3)cn2)no1 (stereo not shown) [Example 128, 5-cyclopropyl-N-[1-(3,3-difluoroazetidin-1-yl)-2-(5-methyl-1,2,4-oxadiazol-3-yl)propan-2-yl]-4-(2,2,2-trifluoroethoxy)pyridine-2-carboxamide]	65.3	> 10000
Cc1nc(C(C)(CS(C)(=O)=O)NC(=O)c2cc(OCC(F)(F)F)c(C3(O)CCC3)cn2)no1 (stereo not shown) [Example 129, 5-(1-hydroxycyclobutyl)-N-[2-(5-methyl-1,2,4-oxadiazol-3-yl)-1-methylsulfonylpropan-2-yl]-4-(2,2,2-trifluoroethoxy)pyridine-2-carboxamide]	1090	> 10000
Cc1nc(C(C)(CS(C)(=O)=O)NC(=O)c2cc(O[C@@H](C)C(F)(F)F)c(C3(F)CCC3)cn2)no1 (stereo partly drawn) [Example 130, 5-(1-fluorocyclobutyl)-N-[2-(5-methyl-1,2,4-oxadiazol-3-yl)-1-methylsulfonylpropan-2-yl]-4-[(2S)-1,1,1-trifluoropropan-2-yl]oxypyridine-2-carboxamide]	23.4	> 10000
Cc1nc(C(C)(CC2CC2)NC(=O)c2cc(OCC(F)(F)F)c(C3(F)COC3)cn2)no1 (stereo not shown) [Example 131, N-[1-cyclopropyl-2-(5-methyl-1,2,4-oxadiazol-3-yl)propan-2-yl]-5-(3-fluorooxetan-3-yl)-4-(2,2,2-trifluoroethoxy)pyridine-2-carboxamide]	26.3	> 10000
CC(CS(C)(=O)=O)(NC(=O)c1cc(OCC(F)(F)F)c(C2CC2)cn1)C(N)=O (stereo not shown) [Example 134, N-(1-amino-2-methyl-3-methylsulfonyl-1-oxopropan-2-yl)-5-cyclopropyl-4-(2,2,2-trifluoroethoxy)pyridine-2-carboxamide]	888	> 10000
Cc1nc(C(C)(CS(C)(=O)=O)NC(=O)c2cc(O[C@@H](C)C(F)(F)F)c(C3(F)CCC3)cn2)no1 (stereo partly drawn) [Example 137, 5-(1-fluorocyclobutyl)-N-[2-(5-methyl-1,2,4-oxadiazol-3-yl)-1-methylsulfonylpropan-2-yl]-4-[(2S)-1,1,1-trifluoropropan-2-yl]oxypyridine-2-carboxamide]	10.5	> 10000
Cc1nc(C(C)(CS(C)(=O)=O)NC(=O)c2cc(O[C@@H](C)C(F)(F)F)c(C3(F)CCC3)cn2)no1 (stereo partly drawn) [Example 138, 5-(1-fluorocyclobutyl)-N-[2-(5-methyl-1,2,4-oxadiazol-3-yl)-1-methylsulfonylpropan-2-yl]-4-[(2S)-1,1,1-trifluoropropan-2-yl]oxypyridine-2-carboxamide]	21.7	> 10000
Cc1nc(C(C)(NC(=O)c2cc(OCC(F)(F)F)c(C3(F)COC3)cn2)C2CC2)no1 (stereo not shown) [Example 139, N-[1-cyclopropyl-1-(5-methyl-1,2,4-oxadiazol-3-yl)ethyl]-5-(3-fluorooxetan-3-yl)-4-(2,2,2-trifluoroethoxy)pyridine-2-carboxamide]	0.6	> 10000
Cc1nc(C(C)(CC2CC2)NC(=O)c2cc(O[C@@H](C)C(F)(F)F)c(C3(F)COC3)cn2)no1 (stereo partly drawn) [Example 142, N-[1-cyclopropyl-2-(5-methyl-1,2,4-oxadiazol-3-yl)propan-2-yl]-5-(3-fluorooxetan-3-yl)-4-[(2S)-1,1,1-trifluoropropan-2-yl]oxypyridine-2-carboxamide]	4.1	> 10000
C[C@H](Oc1cc(C(=O)NC(C)(C#N)CC2CC2)ncc1C1(F)COC1)C(F)(F)F (stereo partly drawn) [Example 143, N-(2-cyano-1-cyclopropylpropan-2-yl)-5-(3-fluorooxetan-3-yl)-4-[(2S)-1,1,1-trifluoropropan-2-yl]oxypyridine-2-carboxamide]	246	> 10000
Cc1nc(C(C)(NC(=O)c2cc(O[C@@H](C)C(F)(F)F)c(C3(F)COC3)cn2)C2CC2)no1 (stereo partly drawn) [Example 144, N-[1-cyclopropyl-1-(5-methyl-1,2,4-oxadiazol-3-yl)ethyl]-5-(3-fluorooxetan-3-yl)-4-[(2S)-1,1,1-trifluoropropan-2-yl]oxypyridine-2-carboxamide]	14.1	> 10000
Cc1nc(C(C)(CC2CC2)NC(=O)c2cc(OCC(F)F)c(C3CC3)cn2)no1 (stereo not shown) [Example 145, 5-cyclopropyl-N-[1-cyclopropyl-2-(5-methyl-1,2,4-oxadiazol-3-yl)propan-2-yl]-4-(2,2-difluoroethoxy)pyridine-2-carboxamide]	3.4	> 10000
Cc1nc(C(C)(CC2CC2)NC(=O)c2cc(OCCF)c(C3CC3)cn2)no1 (stereo not shown) [Example 146, 5-cyclopropyl-N-[1-cyclopropyl-2-(5-methyl-1,2,4-oxadiazol-3-yl)propan-2-yl]-4-(2-fluoroethoxy)pyridine-2-carboxamide]	1.8	> 10000
Cc1nc(C(C)(NC(=O)c2cc(OCC(F)(F)F)c(C3CC3)cn2)C(=O)N2CC(F)(F)C2)no1 (stereo not shown) [Example 147, 5-cyclopropyl-N-[1-(3,3-difluoroazetidin-1-yl)-2-(5-methyl-1,2,4-oxadiazol-3-yl)-1-oxopropan-2-yl]-4-(2,2,2-trifluoroethoxy)pyridine-2-carboxamide]	45.4	> 10000
Cc1nc(C(C)(NC(=O)c2cc(OCC(F)(F)F)c(C3CC3)cn2)C(=O)N2CC3(COC3)C2)no1 (stereo not shown) [Example 148, 5-cyclopropyl-N-[2-(5-methyl-1,2,4-oxadiazol-3-yl)-1-(2-oxa-6-azaspiro[3.3]heptan-6-yl)-1-oxopropan-2-yl]-4-(2,2,2-trifluoroethoxy)pyridine-2-carboxamide]	204	> 10000
CNC(=O)C(C)(NC(=O)c1cc(OCC(F)(F)F)c(C2CC2)cn1)c1noc(C)n1 (stereo not shown) [Example 149, 5-cyclopropyl-N-[1-(methylamino)-2-(5-methyl-1,2,4-oxadiazol-3-yl)-1-oxopropan-2-yl]-4-(2,2,2-trifluoroethoxy)pyridine-2-carboxamide]	12.7	> 10000
Cn1nnc(C(C)(CC2CC2)NC(=O)c2cc(OCC(F)(F)F)c(C3CC3)cn2)n1 (stereo not shown) [Example 150, 5-cyclopropyl-N-[1-cyclopropyl-2-(2-methyltetrazol-5-yl)propan-2-yl]-4-(2,2,2-trifluoroethoxy)pyridine-2-carboxamide]	109	> 10000
